The assay addresses T1, memapsin 2 (Homo sapiens, UniProt P56817).
T1 construct: pET-11 vector-derived residues 1-15 of promemapsin 2-T1 (N, cleaved yes); made in house; host or cells: E. coli
Kind of assay: Inhibition of memapsin 2 proteolytic activity, fluorogenic substrate FS-2. Type of assay: biochemical. Particulars: for Ki / Ki app: memapsin 2. The protocol: Ki is the inhibition equilibrium constant which indicates the ability of compounds to inhibit the β-secretase activity of memapsin 2 and memapsin 1. […] The K1 value is independent of the substrate, and converted from Ki apparent.
The Vi/Vo values depicted in Table 1 were determined at conditions under which the enzyme and inhibitor concentrations were equal (e.g., about 80 nM, 100 nM).
The relationship of Ki (independent of substrate concentration) to Kiapp is a function of substrate concentration in the assay and the Km for cleavage of the substrate by either memapsin 1 or memapsin 2 by the relationship:
The spontaneously activated memapsin 2 was employed in assays to assess the inhibition of memapsin 2 relative to memapsin 1 by compounds of the invention and in some crystallization studies.
An aliquot of the inhibitor of known concentration in DMSO was diluted into 1.8 ml 0.1 M NaOAc, pH 4.0. DMSO and added to a final concentration of 10% (v/v), and memapsin 2 (final concentration of 80 nM), followed by a 20 minute equilibration at 37° C. Compounds were evaluated for the ability to inhibit memapsin 1 and memapsin 2 at concentrations between about 10 nM and about 10 μm of inhibitor.

[1] abbreviates: independent of substrate, converted from Ki apparent, read-out: Ki.
Setting [2] is: apparent Ki in presence of substrate FS-2, read-out: Ki app.
Where [3] appears, read: apparent Ki in presence of substrate FS-2.
Where [4] appears, read: independent of substrate, converted from Ki apparent.

Where two headings read alike, the source gives them in different places.

T1 sequence (P56817 41-454 limits assumed): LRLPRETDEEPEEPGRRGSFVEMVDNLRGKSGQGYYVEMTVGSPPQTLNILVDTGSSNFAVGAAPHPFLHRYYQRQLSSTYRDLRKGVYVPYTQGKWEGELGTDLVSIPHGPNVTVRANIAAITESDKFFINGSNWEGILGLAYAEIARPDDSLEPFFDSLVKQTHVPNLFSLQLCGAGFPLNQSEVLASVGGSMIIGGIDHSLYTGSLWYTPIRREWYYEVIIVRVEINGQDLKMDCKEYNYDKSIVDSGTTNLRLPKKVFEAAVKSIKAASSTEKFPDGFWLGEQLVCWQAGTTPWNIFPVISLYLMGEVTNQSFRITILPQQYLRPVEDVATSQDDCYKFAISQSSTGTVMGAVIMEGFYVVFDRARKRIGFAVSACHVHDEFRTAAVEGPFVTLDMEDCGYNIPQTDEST

Turning to `CC(C)C[C@H](NC(=O)OC(C)(C)C)[C@@H](O)C[C@@H](C)C(=O)N[C@@H](C)C(=O)NCc1ccccc1` [MMI-001], the Ki under setting [1] was 2370 µM.

`CSCC[C@H](NC(=O)[C@H](C)NC(=O)[C@H](C)C[C@H](O)[C@H](CC(C)C)NC(=O)OC(C)(C)C)C(=O)NCc1ccccc1` [MMI-002]: the Ki under setting [1] worked out at 274 µM.

Turning to `CC(C)C[C@H](NC(=O)OC(C)(C)C)[C@@H](O)C[C@@H](C)C(=O)N[C@@H](C)C(=O)N[C@@H](CCS(C)(=O)=O)C(=O)NCc1ccccc1` [MMI-003], the Ki under setting [1] came out at 1660 µM.

Turning to `CC(C)C[C@H](NC(=O)[C@H](CC(N)=O)NC(=O)[C@@H](NC(=O)OC(C)(C)C)C(C)C)[C@@H](O)C[C@@H](C)C(=O)N[C@@H](C)C(=O)NCc1ccccc1` [MMI-005], the Ki runs as follows: under setting [2], 0.126 µM; under setting [1], 0.0789 µM.

On to `CSCC[C@H](NC(=O)OC(C)(C)C)C(=O)N[C@@H](CC(C)C)[C@@H](O)C[C@@H](C)C(=O)N[C@@H](C)C(=O)NCc1ccccc1` [MMI-006], for which the Ki is 63.3 µM under setting [2] and 40.2 µM under setting [1].

As to `CC(C)C[C@H](NC(=O)[C@H](CCS(C)(=O)=O)NC(=O)OC(C)(C)C)[C@@H](O)C[C@@H](C)C(=O)N[C@@H](C)C(=O)NCc1ccccc1` [MMI-007], the Ki reads like this: under setting [2], 49.9 µM; under setting [1], 31.7 µM.

Take `CSCC[C@H](NC(=O)[C@@H](NC(=O)OC(C)(C)C)C(C)C)C(=O)N[C@@H](CC(C)C)[C@@H](O)C[C@@H](C)C(=O)N[C@@H](C)C(=O)NCc1ccccc1` [MMI-008]: the Ki is 0.0736 µM under setting [2] and 0.046 µM under setting [1].

Consider `CC(C)C[C@H](NC(=O)[C@H](CCS(C)(=O)=O)NC(=O)[C@@H](NC(=O)OC(C)(C)C)C(C)C)[C@@H](O)C[C@@H](C)C(=O)N[C@@H](C)C(=O)NCc1ccccc1` [MMI-009], for which the Ki runs as follows: under setting [2], 0.0899 µM; under setting [1], 0.0562 µM.

As to `C=CC[C@H](C[C@H](O)[C@H](CC(C)C)NC(=O)[C@H](CC(N)=O)NC(=O)OC(C)(C)C)C(=O)N[C@H](C(=O)NCc1ccccc1)C(C)C` [MMI-010], the Ki by setting is: under setting [2], 29.4 µM; under setting [1], 18.7 µM.

`CC(C)C[C@H](NC(=O)[C@H](CC(N)=O)NC(=O)OC(C)(C)C)[C@@H](O)C[C@@H](C)C(=O)N[C@H](C(=O)NCc1ccccc1)C(C)C` [MMI-011]: the Ki runs as follows: under setting [2], 4.88 µM; under setting [1], 3.1 µM.

As for `CC(C)C[C@H](NC(=O)[C@H](CC(N)=O)NC(=O)[C@@H](NC(=O)OC(C)(C)C)C(C)C)[C@@H](O)C[C@@H](C)C(=O)N[C@H](C(=O)NCc1ccccc1)C(C)C` [MMI-012], the Ki under setting [2] was found to be 0.0091 µM and the Ki under setting [1] is 0.00568 µM.

`CSCC[C@H](NC(=O)OC(C)(C)C)C(=O)N[C@@H](CC(C)C)[C@@H](O)C[C@@H](C)C(=O)N[C@H](C(=O)NCc1ccccc1)C(C)C` [MMI-015]: the Ki came out at 9.04 µM under setting [2] and 5.65 µM under setting [1].

For `CC(C)C[C@H](NC(=O)[C@H](CCS(C)(=O)=O)NC(=O)OC(C)(C)C)[C@@H](O)C[C@@H](C)C(=O)N[C@H](C(=O)NCc1ccccc1)C(C)C` [MMI-016], the Ki stood at 5.64 µM under setting [2] and 3.53 µM under setting [1].

`CC(C)C[C@H](NC(=O)[C@@H](NC(=O)[C@@H](NC(=O)OC(C)(C)C)C(C)C)[C@@H]1CCOC1)[C@@H](O)C[C@@H](C)C(=O)N[C@H](C(=O)NCc1ccccc1)C(C)C` [MMI-020]: the Ki reads like this: under setting [2], 1.61 µM; under setting [1], 1 µM.

Take `C=CC[C@H](C[C@H](O)[C@H](CC(C)C)NC(=O)[C@H](CC(N)=O)NC(=O)[C@@H](NC(=O)OC(C)(C)C)C(C)C)C(=O)N[C@H](C(=O)NCc1ccccc1)C(C)C` [MMI-021]: the Ki turned out to be 0.112 µM under setting [2] and 0.0701 µM under setting [1].

With `CSC[C@H](NC(=O)OC(C)(C)C)C(=O)N[C@@H](CC(C)C)[C@@H](O)C[C@@H](C)C(=O)N[C@H](C(=O)NCc1ccccc1)C(C)C` [MMI-023], the Ki worked out at 15.3 µM under setting [2] and 9.55 µM under setting [1].

In the case of `CC(C)C[C@H](NC(=O)[C@H](CS(C)(=O)=O)NC(=O)OC(C)(C)C)[C@@H](O)C[C@@H](C)C(=O)N[C@H](C(=O)NCc1ccccc1)C(C)C` [MMI-024], the Ki was found to be 1.44 µM under setting [2] and 0.902 µM under setting [1].

Take `CSC[C@H](NC(=O)[C@@H](NC(=O)OC(C)(C)C)C(C)C)C(=O)N[C@@H](CC(C)C)[C@@H](O)C[C@@H](C)C(=O)N[C@H](C(=O)NCc1ccccc1)C(C)C` [MMI-025]: the Ki came to 0.0655 µM under setting [2] and 0.0409 µM under setting [1].

As for `CCC[C@H](C[C@H](O)[C@H](CC(C)C)NC(=O)[C@H](CSC)NC(=O)O[C@@H]1C[C@@H]2CCO[C@@H]2C1)C(=O)N[C@H](C(=O)NCc1ccccc1)C(C)C` [MMI-027], the Ki is, setting by setting: under setting [2], 11.5 µM; under setting [1], 7.22 µM.

`CCC[C@H](C[C@H](O)[C@H](CC(C)C)NC(=O)[C@H](CSC)NC(=O)O[C@H]1CO[C@H]2OCC[C@H]21)C(=O)N[C@H](C(=O)NCc1ccccc1)C(C)C` [MMI-028]: the Ki under setting [2] is 9.87 µM and the Ki under setting [1] worked out at 6.17 µM.

Take `CCC[C@H](C[C@H](O)[C@H](CC(C)C)NC(=O)[C@H](CSC)NC(=O)O[C@H]1CCOC1)C(=O)N[C@H](C(=O)NCc1ccccc1)C(C)C` [MMI-029]: the Ki under setting [2] was determined as 1.7 µM and the Ki under setting [1] was 1.06 µM.

For the compound `CSCC[C@H](NC(=O)[C@@H](NC(=O)OC(C)(C)C)C(C)C)C(=O)N[C@@H](CC(C)C)[C@@H](O)C[C@@H](CC(F)(F)F)C(=O)N[C@H](C(=O)NCc1ccccc1)C(C)C` [MMI-030], the Ki was found to be 8.52 µM under setting [2] and 5.32 µM under setting [1].

On to `CCC[C@H](C[C@H](O)[C@H](CC(C)C)NC(=O)[C@H](CSC)NC(=O)OCc1cccnc1)C(=O)N[C@H](C(=O)NCc1ccccc1)C(C)C` [MMI-031], for which the Ki is, setting by setting: under setting [2], 0.864 µM; under setting [1], 0.539 µM.

In the case of `CCC[C@H](C[C@H](O)[C@H](CC(C)C)NC(=O)[C@H](CSC)NC(=O)c1cccc(O)c1C)C(=O)N[C@H](C(=O)NCc1ccccc1)C(C)C` [MMI-032], the Ki under setting [2] came to 1.34 µM and the Ki under setting [1] was 0.838 µM.

For `CSCC[C@H](NC(=O)[C@@H](NC(=O)OC(C)(C)C)C(C)C)C(=O)N[C@@H](CC(C)C)[C@@H](O)C[C@@H](C)C(=O)N[C@H](C(=O)NCc1ccccc1)C1CCCO1` (stereo partly shown) [MMI-034], the Ki under setting [2] is 0.223 µM and the Ki under setting [1] was determined as 0.139 µM.

`CC(C)C[C@H](NC(=O)[C@H](CCS(C)(=O)=O)NC(=O)[C@@H](NC(=O)OC(C)(C)C)C(C)C)[C@@H](O)C[C@@H](C)C(=O)N[C@H](C(=O)NCc1ccccc1)C1CCCO1` (stereo partly shown) [MMI-035]: the Ki amounted to 0.426 µM under setting [2] and 0.266 µM under setting [1].

With `CSCC[C@H](NC(=O)[C@@H](NC(=O)OC(C)(C)C)C(C)C)C(=O)N[C@@H](CC(C)C)[C@@H](O)C[C@@H](CC(C)C)C(=O)NC1CCN(Cc2ccccc2)CC1` [MMI-036], the Ki app entry under setting [3] is “N.I”. The Ki result under setting [4] is “N.I”.

As for `CSCC[C@H](NC(=O)[C@@H](NC(=O)OC(C)(C)C)C(C)C)C(=O)N[C@@H](CC(C)C)[C@@H](O)C[C@@H](CCO)C(=O)N[C@H](C(=O)NCc1ccccc1)C(C)C` [MMI-037], the Ki reads like this: under setting [2], 0.104 µM; under setting [1], 0.0648 µM.

On to `CSCC[C@H](NC(=O)[C@@H](NC(=O)OC(C)(C)C)C(C)C)C(=O)N[C@@H](CC(C)C)[C@@H](O)C[C@@H](CC(N)=O)C(=O)N[C@H](C(=O)NCc1ccccc1)C(C)C` [MMI-038], for which the Ki stood at 0.106 µM under setting [2] and 0.0662 µM under setting [1]. Further, where the note is “ratio of initial cleavage velocities of FS-2 with/without compound, enzyme and inhibitor concentrations equal (e.g., about 80 nM, 100 nM)”, the Vi/Vo was 0.4.

With `CSCC[C@H](NC(=O)OCc1cccnc1)C(=O)N[C@@H](CC(C)C)[C@@H](O)C[C@@H](C)C(=O)N[C@H](C(=O)NCc1ccccc1)C(C)C` [MMI-039], the Ki is, setting by setting: under setting [2], 1.4 µM; under setting [1], 0.873 µM.

For `CSCC[C@H](NC(=O)OCc1cccnc1)C(=O)N[C@@H](Cc1ccccc1)[C@@H](O)C[C@@H](C)C(=O)N[C@H](C(=O)NCc1ccccc1)C(C)C` [MMI-040], the Ki reads like this: under setting [2], 2.07 µM; under setting [1], 1.29 µM.

Regarding `CSCC[C@H](NC(=O)[C@@H](NC(=O)OC(C)(C)C)C(C)C)C(=O)N[C@@H](CC(C)C)[C@@H](O)C[C@@H](C)C(=O)N[C@H](COCc1ccccc1)C(C)C` [MMI-041], the Ki app entry under setting [3] is “N.I”. Also, the Ki entry under setting [4] is on record as “N.I”.

For `CSCC[C@H](NC(=O)[C@@H](NC(=O)OC(C)(C)C)C(C)C)C(=O)N[C@@H](CC(C)C)[C@@H](O)C[C@@H](C)C(=O)N[C@H](CO)C(C)C` [MMI-042], the Ki is, setting by setting: under setting [2], 36.5 µM; under setting [1], 22.8 µM.

As to `CC(C)C[C@H](NC(=O)[C@H](CCS(C)(=O)=O)NC(=O)[C@@H](NC(=O)OC(C)(C)C)C(C)C)[C@@H](O)C[C@@H](C)C(=O)N[C@H](CO)C(C)C` [MMI-043], the Ki under setting [2] amounted to 49.2 µM and the Ki under setting [1] is 30.7 µM.

`CSCC[C@H](NC(=O)[C@@H](NC(=O)OC(C)(C)C)C(C)C)C(=O)N[C@@H](CC(C)C)[C@@H](O)C[C@@H](C)C(=O)N1CCC[C@H]1C(=O)NCc1ccccc1` [MMI-044]: under setting [3], the Ki app entry was “N.I”. Besides, under setting [4], the Ki entry is given as “N.I”.

For `CC(C)C[C@H](NC(=O)[C@H](CCS(C)(=O)=O)NC(=O)[C@@H](NC(=O)OC(C)(C)C)C(C)C)[C@@H](O)C[C@@H](C)C(=O)N1CCC[C@H]1C(=O)NCc1ccccc1` [MMI-045], the Ki app entry under setting [3] is listed as “N.I”. Under setting [4], the Ki entry is “N.I”.
